Assay results: US12110299B2, “Thiazole derivatives and pharmaceutically acceptable salts thereof” (YUNGJIN PHARM. CO., LTD., priority 2018, dated 2024)

Experiments:
MDA-MB-468 cells [1] = assay: Anti-proliferative effect on MDA-MB-468 cells, inhibition rate at 100 nM (tetrazolium salt method); type: cell-based; conditions: Homo sapiens, 72 hours
Description: Representative compounds of the present invention were tested at different concentrations (from 1000 nM to 25 nM) to assess their ability to inhibit the proliferation of MDA-MB-468 cells. Cells were grown in RPMI 1640 (Welgene)+10% FBS (Gibco)+1% penicillin/streptomycin (Gibco) and cultured at 37° C. in a humidified chamber in the presence of 5% CO2.
MDA-MB-468 cells cultured in 96-well cell culture plates were treated with representative compounds of the present invention and cultured for 72 hours.

MDA-MB-468 cells [2] = assay: Anti-proliferative effect on MDA-MB-468 cells, IC50 (MTT); type: cell-based; conditions: Homo sapiens, MDA-MB-468, 72 h
Description: The compounds of the present invention were tested at different concentrations (from 1000 nM to 1 nM) to assess their ability for inhibiting the proliferation of MDAMB-468 cells. Cells were cultivated in RPMI 1640 (Welgene)+10% FBS (Gibco)+1% penicillin/streptomycin (Gibco) and cultured at 37° C. in a humidified chamber in the presence of 5% C02.
MDA-MB-468 cells cultured in 96-well cell culture plates were treated with the compounds of the present invention and incubated for 72 hours.

HepG2 cells = assay: HepG2 cell viability assay (CCK-8); type: cell-based, human; conditions: Homo sapiens, HepG2, 72 h
Description: The ability to inhibit the proliferation of HepG2 cells, which are human hepatocellular carcinoma cells, was measured through the in vitro cell viability assay. Cells were cultured at 37° C. in a humidified condition in the presence of 5% CO2 using a culture medium of MEM (Welgene)+10% FBS (Gibco)+1% penicillin/streptomycin (Gibco). […] Cell viability was measured by CCK-8 method using tetrazolium salt, and the ability of the compounds according to the present invention to inhibit cancer cell proliferation was calculated.

IC50 (MDA-MB-468 cells [2]) | IC50 (HepG2 cells) | Structure (SMILES) | inhibition at 0.1 µM (MDA-MB-468 cells [1])
 |  | C=CC(=O)Nc1ccc(-c2cccc(C(C)C(=O)Nc3ncc(C)s3)c2)cn1 (centres unmarked) [Example 1, N-(5-(3-(1-((5-methylthiazol-2-yl)amino)-1-oxopropan-2-yl)phenyl)pyridin-2-yl)acrylamide] | 54%
 |  | C=CC(=O)Nc1ccc(-c2cccc(C(C)C(=O)Nc3ncc(CC)s3)c2)cn1 (centres unmarked) [Example 4, N-(5-(3-(1-((5-ethylthiazol-2-yl)amino)-1-oxopropan-2-yl)phenyl)pyridin-2-yl)acrylamide] | 56%
 |  | C=CC(=O)Nc1ccc(-c2ccc(F)c(C(C)C(=O)Nc3ncc(C#N)s3)c2)nn1 (centres unmarked) [Example 11, N-(6-(3-(1-((5-cyanothiazol-2-yl)amino)-1-oxopropane-2-yl)-4-fluorophenyl)pyridazin-3-yl)acrylamide] | 53%
46 nM |  | C[C@H](C(=O)Nc1ncc(C2CC2)s1)c1cccc(-c2ccc(NC(=O)/C=C/CN(C)C)nc2)c1 [Example 15] | 73%
 |  | C=CC(=O)Nc1cncc(-c2cccc([C@H](C)C(=O)Nc3ncc(C4CC4)s3)c2)n1 [Example 16] | 53%
26 nM |  | CCc1cnc(NC(=O)[C@@H](C)c2cccc(-c3ccc(NC(=O)/C=C/CN(C)C)nc3)c2)s1 [Example 17, (S,E)-4-(dimethylamino)-N-(5-(3-(1-((5-ethylthiazol-2-yl)amino)-1-oxopropan-2-yl)phenyl)pyridin-2-yl)but-2-enamide] | 70%
 |  | C=CC(=O)Nc1cnc(-c2cccc([C@H](C)C(=O)Nc3ncc(C4CC4)s3)c2)cn1 [Example 22] | 72%
 |  | C=CC(=O)Nc1cnc(-c2cccc([C@H](C)C(=O)Nc3ncc(C#N)s3)c2)cn1 [Example 25, (S)-N-(5-(3-(1-((5-cyanothiazol-2-yl)amino)-1-oxopropan-2-yl)phenyl)pyrazin-2-yl)acrylamide] | 71%
 |  | C=CC(=O)Nc1ncc(-c2cccc([C@H](C)C(=O)Nc3ncc(C4CC4)s3)c2)cn1 [Example 27] | 74%
 |  | C=CC(=O)Nc1ccc(-c2cccc([C@H](C)C(=O)Nc3ncc(C4CC4)s3)c2)nn1 [Example 28] | 74%
 |  | C=CC(=O)Nc1ncc(-c2cccc([C@H](C)C(=O)Nc3ncc(C4CC4)s3)c2)cc1F [Example 29] | 75%
 |  | C=CC(=O)Nc1ncc(-c2cccc([C@H](C)C(=O)Nc3ncc(C#N)s3)c2)cc1F [Example 33, (S)-N-(5-(3-(1-((5-cyanothiazol-2-yl)amino)-1-oxopropan-2-yl)phenyl)-3-fluoropyridin-2-yl)acrylamide] | 59%
 |  | C=CC(=O)Nc1cnc(-c2cccc([C@H](C)C(=O)Nc3ncc(C(C)C)s3)c2)cn1 [Example 36, (S)-N-(5-(3-(1-((5-isopropylthiazol-2-yl)amino)-1-oxopropan-2-yl)phenyl)pyrazin-2-yl)acrylamide] | 64%
 |  | C=CC(=O)Nc1ccc(-c2cccc([C@H](C)C(=O)Nc3ncc(C(F)(F)F)s3)c2)cn1 [Example 38, (S)-N-(5-(3-(1-oxo-1-((5-(trifluoromethyl)thiazol-2-yl)amino)propan-2-yl)phenyl)pyridin-2-yl)acrylamide] | 64%
 |  | C=CC(=O)Nc1ccc(-c2cccc([C@H](C)C(=O)Nc3ncc(C(F)(F)F)s3)c2)nn1 [Example 39, (S)-N-(6-(3-(1-oxo-1-((5-(trifluoromethyl)thiazol-2-yl)amino)propan-2-yl)phenyl)pyridazin-3-yl)acrylamide] | 67%
 |  | C=CC(=O)Nc1ccc(-c2cccc([C@H](C)C(=O)Nc3ncc(C(C)C)s3)c2)nn1 [Example 40, (S)-N-(6-(3-(1-((5-isopropylthiazol-2-yl)amino)-1-oxopropan-2-yl)phenyl)pyridazin-3-yl)acrylamide] | 64%
 |  | C=CC(=O)Nc1cnc(-c2cncc(C(C)C(=O)Nc3ncc(C(C)C)s3)c2)cn1 (centres unmarked) [Example 47, N-(5-(5-(1-((5-isopropylthiazol-2-yl)amino)-1-oxopropan-2-yl)pyridin-3-yl)pyrazin-2-yl) acrylamide] | 72%

IC50 (MDA-MB-468 cells [2]) | IC50 (HepG2 cells) | Structure (SMILES) | inhibition at 0.1 µM (MDA-MB-468 cells [1])
 |  | C=CC(=O)Nc1ccc(-c2cncc(C(C)C(=O)Nc3ncc(C(F)(F)F)s3)c2)nn1 (centres unmarked) [Example 49, N-(6-(5-(1-oxo-1-((5-(trifluoromethyl)thiazol-2-yl)amino)propan-2-yl)pyridin-3-yl)pyridazin-3-yl)acrylamide] | 67%
 |  | C=CC(=O)Nc1ccc(-c2cc(C(C)C(=O)Nc3ncc(C4CC4)s3)ccn2)cn1 (centres unmarked) [Example 50, N-(4-(1-((5-cyclopropylthiazol-2-yl)amino)-1-oxopropan-2-yl)-[2,3′-bipyridine]-6′-yl)acrylamide] | 66%
 |  | C=CC(=O)Nc1ccc(-c2csc(C(C)C(=O)Nc3ncc(C(F)(F)F)s3)c2)cn1 (centres unmarked) [Example 53, N-(5-(5-(1-oxo-1-((5-(trifluoromethyl)thiazol-2-yl)amino)propan-2-yl)thiophen-3-yl)pyridin-2-yl)acrylamide] | 51%
 |  | C=CC(=O)Nc1cnc(-c2cncc(C(C)C(=O)Nc3ncc(Cl)s3)c2)cn1 (centres unmarked) [Example 61, N-(5-(5-(1-((5-chlorothiazol-2-yl)amino)-1-oxopropan-2-yl)pyridin-3-yl)pyrazine-2-yl)acrylamide] | 73%
74 nM | 17.4 nM | C[C@H](C(=O)Nc1ncc(C(F)(F)F)s1)c1cccc(-c2cnc3c(c2)CCN3C(=O)/C=C/CN(C)C)c1 [Example 110, (S,E)-2-(3-(1-(4-(dimethylamino)but-2-enoyl)-2,3-dihydro-1H-pyrrolo[2,3-b]pyridin-5-yl)phenyl)-N-(5-(trifluoromethyl)thiazol-2-yl)propanamide] | 
32 nM | 4 nM | C[C@H](C(=O)Nc1ncc(C(F)(F)F)s1)c1cccc(-c2cnc(NC(=O)/C=C/CN(C)C)c(C(F)(F)F)c2)c1 [Example 111, (S,E)-4-(dimethylamino)-N-(5-(3-(1-oxo-1-((5-(trifluoromethyl)thiazol-2-yl)amino)propan-2-yl)phenyl)-3-(trifluoromethyl)pyridin-2-yl)but-2-enamide] | 
59 nM | 8.7 nM | Cc1cc(-c2cccc([C@H](C)C(=O)Nc3ncc(C(F)(F)F)s3)c2)cnc1NC(=O)/C=C/CN(C)C [Example 112, (S,E)-4-(dimethylamino)-N-(3-methyl-5-(3-(1-oxo-1-((5-(trifluoromethyl)thiazol-2-yl)amino)propan-2-yl)phenyl)pyridin-2-yl)but-2-enamide] | 
35 nM | 4.2 nM | C[C@H](C(=O)Nc1ncc(C(F)(F)F)s1)c1cccc(-c2cnc(NC(=O)/C=C/CN(C)C)c(Cl)c2)c1 [Example 113, (S,E)-N-(3-chloro-5-(3-(1-oxo-1-((5-(trifluoromethyl)thiazol-2-yl)amino)propan-2-yl)phenyl)pyridin-2-yl)-4-(dimethylamino)but-2-enamide] | 
56 nM | 12 nM | CCN(CC)C/C=C/C(=O)Nc1cnc(-c2cccc([C@H](C)C(=O)Nc3ncc(C(F)(F)F)s3)c2)cn1 [Example 114, (S,E)-4-(diethylamino)-N-(5-(3-(1-oxo-1-((5-(trifluoromethyl)thiazol-2-yl)amino)propan-2-yl)phenyl)pyrazin-2-yl)but-2-enamide] | 
75 nM | 12 nM | C[C@H](C(=O)Nc1ncc(C(F)(F)F)s1)c1cccc(-c2cnc(NC(=O)/C=C/CN3CC[C@@H](F)C3)cn2)c1 [Example 115, (E)-4-((R)-3-fluoropyrrolidin-1-yl)-N-(5-(3-((S)-1-oxo-1-((5-(trifluoromethyl)thiazol-2-yl)amino)propan-2-yl)phenyl)pyrazin-2-yl)but-2-enamide] | 
34 nM | 38 nM | CCc1cnc(NC(=O)[C@@H](C)c2cccc(-c3cnc4c(c3)CCN4C(=O)/C=C/CN(C)C)c2)s1 [Example 122, (S,E)-2-(3-(1-(4-(dimethylamino)but-2-enoyl)-2,3-dihydro-1H-pyrrolo[2,3-b]pyridin-5-yl)phenyl)-N-(5-ethylthiazol-2-yl)propanamide] | 
24 nM | 11 nM | CCc1cnc(NC(=O)[C@@H](C)c2cccc(-c3cnc(NC(=O)/C=C/CN4CC5CC4CO5)c(C#N)c3)c2)s1 (stereo partly drawn) [Example 123, (E)-4-(2-oxa-5-azabicyclo[2.2.1]heptan-5-yl)-N-(3-cyano-5-(3-((S)-1-((5-ethylthiazol-2-yl)amino)-1-oxopropan-2-yl)phenyl)pyridin-2-yl)but-2-enamide] | 
32 nM | 9.5 nM | CCc1cnc(NC(=O)[C@@H](C)c2cccc(-c3cnc(N(C)C(=O)/C=C/CN(C)C)c(C#N)c3)c2)s1 [Example 132, (S,E)-N-(3-cyano-5-(3-(1-((5-ethylthiazol-2-yl)amino)-1-oxopropan-2-yl)phenyl)pyridin-2-yl)-4-(dimethylamino)-N-methylbut-2-enamide] | 
48 nM | 10 nM | CCc1cnc(NC(=O)[C@@H](C)c2cccc(-c3cnc(NC(=O)/C=C/CN4CCOCC4)c(C#N)c3)c2)s1 [Example 135, (S,E)-N-(3-cyano-5-(3-(1-((5-ethylthiazol-2-yl)amino)-1-oxopropan-2-yl)phenyl)pyridin-2-yl)-4-morpholinobut-2-enamide] | 
47 nM | 18 nM | CCc1cnc(NC(=O)C(C)c2cncc(-c3cnc(NC(=O)/C=C/CN(C)C)c(C#N)c3)c2)s1 (centres unmarked) [Example 137, (E)-N-(5-cyano-5′-(1-((5-ethylthiazol-2-yl)amino)-1-oxopropan-2-yl)-[3,3′-bipyridin]-6-yl)-4-(dimethylamino)but-2-enamide] | 
100 nM | 52 nM | CCc1cnc(NC(=O)C(CC)c2cccc(-c3cnc(NC(=O)/C=C/CN(C)C)c(C#N)c3)c2)s1 (centres unmarked) [Example 138, (E)-N-(3-cyano-5-(3-(1-((5-ethylthiazol-2-yl)amino)-1-oxobutan-2-yl)phenyl)pyridin-2-yl)-4-(dimethylamino)but-2-enamide] | 
